Measured values published in patent publication US6036958A, “Tsetse thrombin inhibitor” (Yale University, priority 1999, dated 2000).
No end group written: not given here.

Columns and labels:
[1] = test system: ADP induced platelet aggregation; assay: Platelet aggregation assay, ADP induced; type: cell-based, human; settings: purified TTI
Method: (§1) Platelet Aggregation Assay. Blood from a healthy human volunteer was collected by venipuncture, anticoagulated with 1/10 volume of 0.08 M trisodium citrate, and centrifuged at 150 g for 10 min. The platelet rich plasma (PRP) was withdrawn and acidified to pH 6.4 using 0.15 M citric acid^15. The PRP was then centrifuged at 370 g for 20 min and the supernatant discarded. The platelet pellet was resuspended in Tyrodes solution (pH 7.4) with 3.13% wt/vol trisodium citrate and counted in a Coulter counter (Coulter Electronics, Hialeah, Fla.). The concentration of platelets was adjusted to 3×10^4 /μl prior to use.

[2] = test system: collagen induced platelet aggregation; assay: Platelet aggregation assay, collagen induced; type: cell-based, human; settings: purified TTI
Method: as §1

[3] = biological target: thrombin (Homo sapiens, UniProt P00734); assay: Single stage chromogenic assay of thrombin inhibition (S-2238); type: biochemical; settings: purified protein
Method: Thrombin Assays. A single stage chromogenic assay of thrombin inhibition was used to monitor SGE activity. 100 μl of thrombin, diluted to a concentration of 1 nM in 10 mM HEPES, pH 7.5 containing 0.1% bovine serum albumin and 150 mM NaCl (HBSA), was incubated with 50 µl of SGE, column fractions (diluted 1:1000 in HBSA), or purified TTI for 15 min at 25° C. in a 96 well microtiter plate. Following the addition of […], the initial rate (mOD/min) of substrate hydrolysis over 5 min was measured at 405 nm using a Vmax kinetic microplate reader (Molecular Devices, Palo Alto, Calif.). Results were expressed as percent inhibition of thrombin activity using the following formula:
Percent inhibition=1--(inhibited rate/uninhibited rate)×100

[4] = test system: thrombin induced platelet aggregation; assay: Platelet aggregation assay, thrombin induced; type: cell-based; settings: washed human platelets; TTI 0, 0.001, 0.5, 1.0 nM; thrombin 0.2 NIH U/ml
Method: as §1
To determine the effect of TTI on thrombin induced aggregation, 200 μl of washed platelets were warmed to 37° C. in a Born multi-channel aggregometer in the presence of increasing concentrations of purified TTI. Aggregation was then recorded following the addition of 20 μl of thrombin (Boehringer-Mannheim, Indianapolis, Ind.) at a final concentration of 0.2 NIH U/ml. The aggregometer was calibrated to 100% light transmission, ie 0% aggregation, using Tyrodes solution.

[5] = test system: restenosis following angioplasty; settings: rabbits; cited from earlier work

TTI: low molecular weight polypeptide (about 3530 Da) purified from Glossina morsitans morsitans salivary glands; residues 19 to 50 of SEQ ID NO: 2 (GEPGAPIDYDEYGDSSEEVGGTPLHEIPGIRL)
effect on ADP induced aggregation [1]: no effect | effect on collagen induced aggregation [2]: no effect | inhibitory activity against thrombin [3]: potent, tight-binding inhibitor of thrombin | inhibition of platelet aggregation in response to thrombin [4]: dose dependent inhibition of platelet aggregation

tick anticoagulant peptide: from Ornithodoros moubata, potent and specific inhibitor of factor Xa (YNRLCIKPRDWIDECDSNEGGERAYFRNGKGGCDSFWICPEDHTGADYYSSYRDCFNACI; ends and bridges not checked; cysteine pairing not given here; UniProt P17726 1-60, looked up) [reference compound]
reducing restenosis following angioplasty, compared with heparin [5]: superior to heparin

B1: recombinant antistasin: from the leech Haementaria officinalis, potent and specific inhibitor of factor Xa (protein, UniProt P15358 18-136, looked up)
Antistasin: QGPFGPGCEEAGCPEGSACNIITDRCTCSGVRCRMHCPHGFQRSRYGCEFCKCRLEPMKATCDISECPEGMMCSRLTNKCDCKIDINCRKTCPNGLKRDKLGCEYCECRPKRKLIPRLS
reducing restenosis following angioplasty, compared with heparin [5]: superior to heparin
